# Measurements from PubChem BioAssay AID652053 (Broad Institute, 2013).
# Tested on: Huh7 psiCHECK-miR122 Renilla luciferase reporter, 48 h
# Test: miR-122 inhibitors in Huh7 reporter cells, dose response, cell-based, Huh7 psiCHECK-miR122, Renilla luciferase, cherry-pick (AID 652053)
row,SMILES,AC40
1,O=C1c2ccccc2C2=Nc3ccccc3SC(c3ccccc3F)C12 (stereo not drawn),21 µM
2,CC1=CC(C)(C)N(S(=O)(=O)c2ccc(C)cc2)c2cc(C)ccc21,3.72 µM
3,CCOc1cc(C)c(C(C)C)cc1S(=O)(=O)NCc1ccccn1,0.392 µM
4,C[C@@H]1CN([C@H](C)CO)C(=O)c2cccc(NC(=O)c3nc4ccccc4s3)c2O[C@@H]1CN(C)Cc1ccc(C(=O)Nc2ccccc2N)cc1,17.7 µM
5,O=c1c2ccccc2nnn1CSc1nnc(C2COc3ccccc3O2)n1-c1ccccc1 (stereo not drawn),19.2 µM
6,CCC(C(=O)Nc1ccc(N2CCOCC2)c(S(=O)(=O)Nc2ccccc2OC)c1)c1ccccc1 (stereo not drawn),1.11 µM
7,Cc1ccc(C)c(S(=O)(=O)Nc2cc3c4c(c2)CC(=O)N4CCC3)c1,1.88 µM
8,COc1ccc(C(=O)NC(=S)Nc2ccc(S(=O)(=O)Nc3cc(OC)ncn3)cc2)cc1,4.82 µM
9,O=S(=O)(Nc1ccc(C(O)(C(F)(F)F)C(F)(F)F)cc1)c1cccc2ccccc12,1.45 µM
10,Cc1ccc(C2CC(c3cccs3)=NN2S(=O)(=O)c2ccc(C)cc2)cc1 (stereo not drawn),8.19 µM
11,CCCNC(=O)NC[C@H]1[C@@H](c2ccc(C3=CCCC3)cc2)[C@@H](CO)N1C(=O)CC,10.2 µM
12,CN1C(=O)c2cc(NC(=O)Cc3ccccc3)ccc2OC[C@@H]2O[C@H](CC(=O)NCC3CC3)CC[C@@H]21,0.512 µM
13,COc1ccc(Br)cc1S(=O)(=O)N1CCN=C1c1ccccc1,9.26 µM
14,O=S(=O)(N/N=C\c1cccn1-c1ccccc1)c1ccc2ccccc2c1,0.263 µM
15,CCN(CC)S(=O)(=O)c1cc(C(=O)N(C)CC(=O)Nc2ccc(Cl)cc2)ccc1Cl,13.9 µM
16,COc1ccc(OC)c(S(=O)(=O)Nc2ccccc2C(F)(F)F)c1,9.97 µM
17,CC(C)(C)c1ccc(S(=O)(=O)Nc2ccc(C(O)(C(F)(F)F)C(F)(F)F)cc2)cc1,5.39 µM
18,O=S(=O)(NC1CCCCC1)c1cccc(-c2nnc(-c3ccccc3)o2)c1,2.16 µM
19,CCn1c(=O)c2cc(S(=O)(=O)NC3CCCCC3)ccc2n(CC)c1=O,3.31 µM
20,COC(=O)c1ccc(C)c(NS(=O)(=O)c2ccc(OC)c(OC)c2)c1,21.5 µM
21,OC(c1cc(Cl)cc(Cl)c1)c1ncc(-c2ccccc2F)[nH]1 (stereo not drawn),3.84 µM
22,Cc1cc(Cl)c(S(=O)(=O)Nc2ccc3c(c2)OCO3)cc1OCC(=O)NC1CCCCC1,5.8 µM
23,C[C@H](CO)N1C[C@H](C)[C@H](CN(C)Cc2ccc(C(=O)Nc3ccccc3N)cc2)Oc2ccc(NS(=O)(=O)c3ccc(Cl)cc3)cc2CC1=O,7.89 µM
24,COc1ccccc1NS(=O)(=O)c1cc(NC(=O)c2cc(=O)[nH]c3ccccc23)ccc1N1CCOCC1,1.01 µM
25,C[C@@H]1CN([C@@H](C)CO)C(=O)c2cccc(NS(=O)(=O)c3ccccc3)c2O[C@@H]1CN(C)Cc1ccc(C(=O)Nc2ccccc2N)cc1,9.09 µM

row,SMILES,AC40
1,CCN(CC)S(=O)(=O)c1ccc(C)c(NCC(=O)Nc2ccc(C#N)c(Cl)c2)c1,1.77 µM
2,Cc1cccc(NS(=O)(=O)c2cc3c(cc2C)NC(=O)CO3)c1,2.36 µM
3,Cc1ccc(C(=O)Nc2ccc(Cl)cc2C(=O)c2ccccc2)cc1,18.6 µM
4,Cc1ccc(S(=O)(=O)Nc2ccc3nc(N)sc3c2)cc1,2 µM
5,O=S(=O)(NCCc1ccccc1)c1cccc(S(=O)(=O)N2CCOCC2)c1,6 µM
6,COc1ccc(OC)c(S(=O)(=O)N/N=C\c2ccc3c(c2)OCO3)c1,0.508 µM
7,C[C@@H]1CN([C@@H](C)CO)C(=O)c2cc(N(C)C)ccc2O[C@H]1CN(C)Cc1ccc(C(=O)Nc2ccccc2N)cc1,9.78 µM
8,COc1ccc(NC(=O)C2CCC2)cc1S(=O)(=O)Nc1cc(C)ccc1Br,0.985 µM
9,COc1ccc(NS(=O)(=O)c2cc(NC(=O)c3ccc(F)cc3)ccc2OC)cc1,3.14 µM
10,Cc1ccc([N+](=O)[O-])cc1N(CC(=O)Nc1ccc(S(=O)(=O)Nc2cccc(C(F)(F)F)c2)cc1)S(C)(=O)=O,14 µM
11,CCC(=O)N1N=C(c2ccc(NS(=O)(=O)c3ccc(C)cc3)cc2)CC1c1ccco1 (stereo not drawn),4.52 µM
12,COc1ccc(S(=O)(=O)N(C)C[C@H]2Oc3ccc(NC(=O)Nc4ccc(C(F)(F)F)cc4)cc3C(=O)N([C@H](C)CO)C[C@H]2C)cc1,1.81 µM
13,CC(c1ccco1)N(C(=O)CSc1ccc(Br)cc1)c1ccccn1 (stereo not drawn),14.4 µM
14,CCCCCCNS(=O)(=O)c1ccc(Cl)s1,13.9 µM
15,CN(C)c1ccc(C(=O)c2ccc(N(C)C)c3ccccc23)cc1,4.07 µM
16,C[C@H](CO)N1C[C@H](C)[C@H](CN(C)Cc2ccc(C(=O)Nc3ccccc3N)cc2)Oc2ccc(NC(=O)Nc3ccccc3)cc2CC1=O,5.91 µM
17,CCc1c(C(=O)NC2CCCCC2)[nH]c(C)c1C(C)=O,4.84 µM
18,C=CCNc1cc(F)ccc1S(=O)(=O)NCC=C,1.03 µM
19,O=S(=O)(Nc1ccccc1)c1ccc(-c2cnc(C3CC3)o2)cc1,8.92 µM
20,COc1ccc(S(=O)(=O)Nc2ccc(CC#N)cc2)cc1,11.9 µM
21,COc1ccc(OC)c(S(=O)(=O)Nc2cccc(-c3ccc4nncn4n3)c2)c1,2.4 µM
22,COc1ccc(NS(=O)(=O)c2cc(OC)ccc2OC)cc1,5.31 µM
23,Cc1ccc(S(=O)(=O)NCCN2CCOCC2)c(C)c1C,6.26 µM
24,C[C@H](CO)N1C[C@H](C)[C@@H](CN(C)Cc2ccc3c(c2)OCO3)Oc2c(NC(=O)C3CCCCC3)cccc2C1=O,5.43 µM
25,Clc1ccc2[nH]cc(-c3nnnn3-c3ccc4ccccc4c3)c2c1,6.75 µM

row,SMILES,AC40
1,C/C(=N\Nc1ccccn1)c1ccc(S(=O)(=O)NCc2ccco2)cc1,6.97 µM
2,CCCCOc1ccc(S(=O)(=O)Nc2ccc(NC(C)=O)cc2)cc1,10.3 µM
3,O=S(=O)(NC1CC2CCC1C2)c1ccc2c(c1)OCCO2 (stereo not drawn),3.87 µM
4,COc1cc(S(=O)(=O)NC2CCCCC2)ccc1Cl,2.18 µM
5,C/C(=N\NC(=O)c1cccc(S(=O)(=O)Nc2cccc(Cl)c2)c1)c1cccs1,3.3 µM
6,COc1cc(C(CCN2CCOCC2)c2c(OC)cc(OC)c3c(-c4ccccc4)cc(=O)oc23)cc(OC)c1OC (stereo not drawn),1.2 µM
7,CCCC#Cc1ccc2c(c1)O[C@H](CN(C)C(=O)c1ccccn1)[C@@H](C)CN([C@H](C)CO)S2(=O)=O,11.3 µM
8,Cc1ccc(S(=O)(=O)NCc2ccco2)c(C)c1C,1.79 µM
9,COc1ccc(OC)c(N(CC(=O)N2CCC(C)CC2)S(=O)(=O)c2ccccc2)c1,4.36 µM
10,O=C(Cc1cccc2ccccc12)Nc1ccc(OC(F)F)c(Cl)c1,4.28 µM
11,CCOc1ccc(Br)cc1S(=O)(=O)NCc1ccncc1,1.9 µM
12,Cc1cc(C)c(C)c(S(=O)(=O)Nc2ccc(O)cc2)c1C,6.69 µM
13,Cc1ccc(C)c(S(=O)(=O)Nc2cc3c4c(c2)CCC(=O)N4CCC3)c1,0.678 µM
14,COc1ccc(NS(=O)(=O)c2cc(NC(=O)c3ccc(=O)[nH]c3)ccc2N2CCCC2)cc1,0.424 µM
15,Cc1ccccc1C(=O)Oc1ccc(Br)cc1C(=S)N1CCCC1,13.3 µM
16,Cc1cc(C)cc(NS(=O)(=O)c2ccc(F)cc2)c1,10.9 µM
17,CN1c2ccc(-c3cccc(F)c3)cc2[C@H]2[C@H](CCN2C(=O)c2ccccc2F)[C@H]1CO,0.528 µM
18,Cc1ccc(S(=O)(=O)N(C)C[C@H]2Oc3ccc(NC(=O)CCC(F)(F)F)cc3C(=O)N([C@@H](C)CO)C[C@H]2C)cc1,12.1 µM
19,Cc1cc(C)c(S(=O)(=O)NC(C)C)c(C)c1-n1cnnn1,1.3 µM
20,CCN(CC)C(=O)CN(c1cc2c(cc1OC)oc1ccccc12)S(=O)(=O)c1ccccc1,1.69 µM
21,O=C(NCCCn1ccnc1)c1cc(-c2ccccc2)on1,28.8 µM
22,C[C@H]1CN([C@@H](C)CO)C(=O)c2cccc(NC(=O)c3ccncc3)c2O[C@@H]1CN(C)CC1CCCCC1,7.44 µM
23,CCN(CC)S(=O)(=O)c1cc(NS(=O)(=O)c2cccc(Cl)c2)ccc1C,8.63 µM
24,C[C@@H]1CN([C@@H](C)CO)C(=O)Cc2cc(NC(=O)Nc3ccc(C(F)(F)F)cc3)ccc2O[C@@H]1CN(C)C(=O)Nc1cccc2ccccc12,4.39 µM
25,CCN(CC)C(=S)Nc1ccc(Cl)c(Cl)c1,16 µM

row,SMILES,AC40
1,C=C(C)CN(CC)C(=O)COc1ccc(S(=O)(=O)Nc2ccc(OC)cc2)cc1,7.78 µM
2,CNC(=S)Nc1ccc(N2CCCC2)c(S(=O)(=O)Nc2ccc(OC)cc2)c1,1.31 µM
3,CS(=O)(=O)N(CC(=O)Nc1ccc(Cl)c(Cl)c1)C1CCCCC1,13.5 µM
4,Cc1ccc(C2=NN3C(C(=O)c4ccccc4)Oc4ccccc4C3C2)cc1 (stereo not drawn),4.05 µM
5,C[C@H](CO)N1C[C@H](C)[C@H](CN(C)Cc2ccc(C(=O)Nc3ccccc3N)cc2)Oc2ccc(NC(=O)Nc3ccc(F)cc3)cc2CC1=O,9.84 µM
6,COc1ccccc1NS(=O)(=O)c1cc(NC(=O)c2cccnc2)ccc1N1CCCCC1,< 0.26 µM
7,Fc1cccc(NC(=S)NC2CCCCCCC2)c1,4.22 µM
8,COc1ccc(NS(=O)(=O)c2ccc(N3CCOCC3)c(NC(=O)c3ccc(F)cc3)c2)cc1,7.87 µM
9,C[C@H]1CN([C@@H](C)CO)C(=O)c2cccc(NS(=O)(=O)c3ccccc3)c2O[C@@H]1CN(C)Cc1ccc(C(=O)Nc2ccccc2N)cc1,22 µM
10,CN1C(=O)c2cc(NC(=O)NCc3ccccc3)ccc2OC[C@@H]2O[C@@H](CC(=O)NCC3CCCCC3)CC[C@@H]21,3.21 µM
11,COc1ccc(NS(=O)(=O)c2ccc(Cl)c(N)c2)cc1Br,3.88 µM
12,Cc1cc(S(=O)(=O)NCC(c2ccccc2)c2ccccc2)ccc1-n1cnnn1,2.23 µM
13,C[C@H](CO)N1C[C@H](C)[C@@H](CN(C)Cc2ccc(Oc3ccccc3)cc2)Oc2c(NC(=O)c3ccncc3)cccc2C1=O,2.42 µM
14,CCCCNS(=O)(=O)c1ccc2nc(-c3cccnc3)cc(C(=O)NC3CCCC3)c2c1,5.37 µM
15,COc1ccc(NS(=O)(=O)c2cc(C)ccc2C)cc1,1.47 µM
16,Cc1ccc(-c2nn3c(C)nnc3c3ccccc23)cc1S(=O)(=O)NCCN1CCOCC1,3.24 µM
17,C[C@H](CO)N1C[C@H](C)[C@@H](CN(C)Cc2ccc(C(F)(F)F)cc2)Oc2c(NC(=O)c3nc4ccccc4s3)cccc2C1=O,2.32 µM
18,CC(=O)N1CCSc2ccc(S(=O)(=O)Nc3ccc(C)cc3)cc21,4.2 µM
19,C[C@H](CO)N1C[C@H](C)[C@@H](CN(C)Cc2cncnc2)Oc2cc(C#CC3CCCC3)ccc2S1(=O)=O,0.805 µM
20,CN(Cc1ccccc1)S(=O)(=O)c1ccc(NC(=S)NC(=O)C2CCCCC2)cc1,13.4 µM
21,Cc1ccccc1NC(=O)c1ccc(NS(=O)(=O)c2cc(C(C)(C)C)cc(C)c2C)cc1,< 0.26 µM
22,CC(C)c1ccc(S(=O)(=O)Nc2ccc3c(c2)OCO3)cc1,2.71 µM
23,Cc1ccc(S(=O)(=O)Nc2cccc(-c3ccc4nncn4n3)c2)cc1,9.35 µM
